Measured values: patent US20090209550A1, “SUBSTITUTED TRIAZOLOPYRIDINES” (AUSPEX PHARMACEUTICALS, INC., priority 2008, published 2009)
Where a name gives a salt, the structure may show the parent alone.

Experiment: In vitro liver microsomal stability assay
Type: in vitro ADME
Details: '+' marks the bin; human liver microsomes 1 mg per mL protein, NADPH-generating system, 1 μM, 37° C.; compared to non-isotopically enriched drug
Experimental: Liver microsomal stability assays are conducted at 1 mg per mL liver microsome protein with an NADPH-generating system in 2% NaHCO3 (2.2 mM NADPH, 25.6 mM glucose 6-phosphate, 6 units per mL glucose 6-phosphate dehydrogenase and 3.3 mM MgCl2). Test compounds are prepared as solutions in 20% acetonitrile-water and added to the assay mixture (final assay concentration 1 μM) and incubated at 37° C. Final concentration of acetonitrile in the assay should be <1%. Aliquots (50 μL) are taken out at times 0, 0.25, […], and 1 hours, and diluted with ice cold acetonitrile (200 μL) to stop the reactions. Samples are centrifuged at 12,000 RPM for 10 min to precipitate proteins. Supernatants are transferred to micro centrifuge tubes and stored for LC/MS/MS analysis of the degradation half-life of the test compounds.

Row | % increase of HLM degradation half-life, 0%-50% | Structure (SMILES) | other results
1 | + (0%-50%) | [2H]C([2H])(CCN1CCN(c2cccc(Cl)c2)CC1)n1nc2ccccn2c1=O [Example 3, 2-(3-(4-(3-Chlorophenyl)piperazin-1-yl)propyl-1,1-d2)-[1,2,4]triazolo[4,3-a]pyridin-3(2H)one hydrochloride] | –
2 | + (0%-50%) | [2H]C([2H])(CC([2H])([2H])n1nc2ccccn2c1=O)N1CCN(c2cccc(Cl)c2)CC1 [Example 4, 2-(3-(4-(3-Chlorophenyl)piperazin-1-yl)propyl-1,1,3,3-d4)-[1,2,4]triazolo[4,3-a]pyridin-3(2H)one hydrochloride] | –

More lines, now with the values behind:

Row | Structure (SMILES) | % increase of HLM degradation half-life, 0%-50% | other results
3 | O=c1n(CCCN2CCN(c3cccc(Cl)c3)CC2)nc2ccccn12 [Example 1, 2-(3-(4-(3-Chlorophenyl)piperazin-1-yl)propyl)-[1,2,4]triazolo[4,3-a]pyridin-3(2H)one, reference compound] | – | % increase of HLM degradation half-life, 50%-150%: + (50%-150%)
4 | [2H]C([2H])(CCn1nc2ccccn2c1=O)N1CCN(c2cccc(Cl)c2)CC1 [Example 2, 2-(3-(4-(3-Chlorophenyl)piperazin-1-yl)propyl-3,3-d2)-[1,2,4]triazolo[4,3-a]pyridin-3(2H)one hydrochloride] | – | % increase of HLM degradation half-life, >150%: + (>150%)
5 | [2H]C([2H])(N1CCN(c2cccc(Cl)c2)CC1)C([2H])([2H])C([2H])([2H])n1nc2ccccn2c1=O [Example 5, 2-(3-(4-(3-Chlorophenyl)piperazin-1-yl)propyl-1,1,2,2,3,3-d6)-[1,2,4]triazolo[4,3-a]pyridin-3(2H)one hydrochloride] | + (0%-50%) | –
